Measured values: patent EP0694299B1, “The use of( a) bicycloheptane derivative(s)” (EGIS GYOGYSZERGYAR RT., priority 1994, dated 1996)
Where two headings read alike, the source gives them in different places.

Tested on: cholecyst contraction induced by yolk
Experiment: Inhibition of yolk-induced gallbladder (cholecyst) mass decrease in mice
Type: in vivo, male mice from the strain NMRI
Conditions: Mus musculus, po
Method: The effect of the bicycloheptane derivatives used according to the invention is verified on the following test. Known spasmolytics 1-[3',4'-di-(ethoxy)-benzyliden]-6,7-di-- [ethoxy] -1,2,3,4-terra-[hydro] -isoquinoline {drotaverine} and 1- [3',4'-di-(methoxy)-benzyl]-6,7-di-[methoxy] -isoquinoline {papaverine} are employed for comparison. (These spasmolytics are most often used in the therapeutical practice).
The tests were performed on male mice from the strain NMRI in groups consisting of 8 to 12 animals. At the beginning of the test, the animals were weighing 20 to 30 g.
The animals were starved for 24 hours before beginning the first treatment, however, they were allowed to consume water ad libitum. The compounds to be tested and the carrier (0.4% solution of methyl cellulose) were administered perorally in a volume of 10 ml/kg.
45 minutes after this treatment, an emulsion of 30% of yolk in 0.4% methyl cellulose solution was administered perorally. Each mouse consumed 0.5 ml of the emulsion. The animals of the control group consumed 0.5 ml of the carrier i.e. 0.4% methyl cellulose solution.
After 15 minutes, cervicalis dislocatio was employed, the gallbladders were removed and weighed, one by one. The effect of the compounds tested was given as the inhibition of the cholecyst mass decrease induced by yolk, in percentage. […] Table

[1] = dose causing 50% inhibition of the cholecyst mass decrease induced by yolk, p.o. 45 min before 30% yolk emulsion, gallbladders weighed 15 min later, linear regression, read-out: ID50 p.o.

| Compound | ED50 [1] | ED50 (read-out: ID50 p.o. in mg/kg) |
| --- | --- | --- |
| CN(C)CCO[C@]1(c2ccccc2)C[C@H]2CC[C@]1(C)C2(C)C.O=C(O)/C=C/C(=O)O [(1R,2S,4R)-(-)-2-[Phenyl]-2-[2'-(dimethylamino)-ethoxy]-1,7,7-tri-[methyl] -bicyclo[2.2.1]heptane (E)-2-butenedioate] | 7 mg/kg |  |
| CC1(C)[C@@H]2CC[C@@]1(C)[C@@](OCC[N+](C)(C)[O-])(c1ccccc1)C2 [(1R,2S,4R)-(-)-2-[Phenyl]-2-[2'-(dimethylamino)-ethoxy]-1,7,7-tri-[methyl]-bicyclo[2.2.1]heptane-N-oxide (E)-2-butenedioate] | > 100 mg/kg |  |
| COc1ccc(Cc2nccc3cc(OC)c(OC)cc23)cc1OC [Papaverine, 1-[3',4'-di-(Methoxy)-benzyl]-6,7-di-[methoxy]-isoquinoline, reference compound] |  | > 100 mg/kg |
| CN(C)CCO[C@@]1(c2ccccc2)C[C@@H]2CC[C@@]1(C)C2(C)C.O=C(O)/C=C/C(=O)O [(1S,2R,4S)-(+)-2-[Phenyl] -2-[2'-(dimethylamino)-ethoxy]-1,7,7-tri-[methyl] -bicyclo[2.2.1]heptane (E) -2-butenedioate] | > 100 mg/kg |  |
| CCOc1ccc(/C=C2\NCCc3cc(OCC)c(OCC)cc32)cc1OCC [Drotaverine, 1-[3',4'-di-(Ethoxy)-benzyliden]-6,7-di-[ethaxy]-1,2,3,4-tetra-[hydro]-isoquinoline, reference compound] | > 100 mg/kg |  |
